# Reference: the supplement of paper PMC13380429
# Assays:
# Settings in all cases: 72 h
# Calu-3 [1] = assay: drug sensitivity score (DSS) for viability; higher = more toxic; extreme values may be limits of the assay
# Vero E6 [2] = assay: as above
# U2OS [3] = assay: as above
# HepG2 [4] = assay: as above
# Caco-2 [5] = assay: as above
# Calu-3 [6] = assay: cell viability relative to DMSO; higher = less toxic
# Vero E6 [7] = assay: as above
# U2OS [8] = assay: as above
# HepG2 [9] = assay: as above
# Caco-2 [10] = assay: as above
# Calu-3 [11] = assay: relative viability EC50 (midpoint between 100% and the lowest measured viability); higher = less toxic
# Vero E6 [12] = assay: as above
# U2OS [13] = assay: as above
# HepG2 [14] = assay: as above
# Caco-2 [15] = assay: as above
Structure (SMILES),drug sensitivity score (Calu-3 [1]),drug sensitivity score (Vero E6 [2]),drug sensitivity score (U2OS [3]),drug sensitivity score (HepG2 [4]),drug sensitivity score (Caco-2 [5]),cell viability (Calu-3 [6]; 1 nM),cell viability (Calu-3 [6]; 10 nM),cell viability (Calu-3 [6]; 100 nM),cell viability (Calu-3 [6]; 1000 nM),cell viability (Calu-3 [6]; 10000 nM),cell viability (Vero E6 [7]; 1 nM),cell viability (Vero E6 [7]; 10 nM),cell viability (Vero E6 [7]; 100 nM),cell viability (Vero E6 [7]; 1000 nM),cell viability (Vero E6 [7]; 10000 nM),cell viability (U2OS [8]; 1 nM),cell viability (U2OS [8]; 10 nM),cell viability (U2OS [8]; 100 nM),cell viability (U2OS [8]; 1000 nM),cell viability (U2OS [8]; 10000 nM),cell viability (HepG2 [9]; 1 nM),cell viability (HepG2 [9]; 10 nM),cell viability (HepG2 [9]; 100 nM),cell viability (HepG2 [9]; 1000 nM),cell viability (HepG2 [9]; 10000 nM),cell viability (Caco-2 [10]; 1 nM),cell viability (Caco-2 [10]; 10 nM),cell viability (Caco-2 [10]; 100 nM),cell viability (Caco-2 [10]; 1000 nM),cell viability (Caco-2 [10]; 10000 nM),relative viability EC50 (Calu-3 [11]),relative viability EC50 (Vero E6 [12]),relative viability EC50 (U2OS [13]),relative viability EC50 (HepG2 [14]),relative viability EC50 (Caco-2 [15])
CCC(C)n1ncn(-c2ccc(N3CCN(c4ccc(OCC5COC(Cn6cncn6)(c6ccc(Cl)cc6Cl)O5)cc4)CC3)cc2)c1=O (stereo not given) [itraconazole],0,0,0,0,0,91.1%,102%,101%,104%,98.6%,92.9%,87.4%,87.2%,87.9%,108%,92.1%,99.5%,93.9%,102%,109%,92.7%,94.9%,101%,92.7%,97.6%,103%,101%,111%,99.7%,97.2%,> 10 µM,> 10 µM,> 10 µM,> 10 µM,> 10 µM
CC1(C)Oc2ccc(C#N)cc2[C@@H](N2CCCC2=O)[C@@H]1O [levcromakalim],0,0,0,0,0,85.7%,105%,91.8%,104%,102%,92.1%,96.6%,97.1%,97.2%,93.7%,103%,102%,99.4%,98%,101%,109%,105%,98%,101%,96.2%,96.5%,99.7%,99.1%,88.5%,99.6%,> 10 µM,> 10 µM,> 10 µM,> 10 µM,> 10 µM
Clc1cccc(C(c2ccc3[nH]cnc3c2)n2ccnc2)c1 (stereo not given) [liarozole],0,0,0,0,0,99%,96.1%,93.8%,103%,101%,94.2%,90.5%,94.8%,94.8%,95%,97.8%,95%,95.5%,93.9%,96.3%,99.6%,104%,99.3%,111%,89.3%,97.2%,87.8%,98.7%,93.9%,85.4%,> 10 µM,> 10 µM,> 10 µM,> 10 µM,> 10 µM
CC(=O)N(C)c1cc(-c2ccnc3c(C(=O)c4cccs4)cnn23)ccc1F [lorediplon],0,0,0,1.1,0.3,90.8%,106%,98.6%,104%,99.6%,97.9%,98.9%,93.9%,96.3%,91%,99.2%,97%,97%,96.7%,96.6%,94%,107%,95.6%,96.1%,80%,100%,93.9%,87.5%,95.1%,88.1%,> 10 µM,> 10 µM,> 10 µM,> 10 µM,> 10 µM
